Measured values reported in patent US20200239530A1, “COMPOUNDS AND METHODS OF MODULATING PROTEIN DEGRADATION” (Vividion Therapeutics, Inc., priority 2017, published 2020).

Target: T1, RRP1B Ribosomal RNA processing protein 1 homolog B (Homo sapiens, UniProt Q14684)
T1 construct: Cells were resuspended in cold PBS on ice and sonicated with a probe sonicator to achieve lysis; endogenous in cells
T1 sequence (Q14684 1-758): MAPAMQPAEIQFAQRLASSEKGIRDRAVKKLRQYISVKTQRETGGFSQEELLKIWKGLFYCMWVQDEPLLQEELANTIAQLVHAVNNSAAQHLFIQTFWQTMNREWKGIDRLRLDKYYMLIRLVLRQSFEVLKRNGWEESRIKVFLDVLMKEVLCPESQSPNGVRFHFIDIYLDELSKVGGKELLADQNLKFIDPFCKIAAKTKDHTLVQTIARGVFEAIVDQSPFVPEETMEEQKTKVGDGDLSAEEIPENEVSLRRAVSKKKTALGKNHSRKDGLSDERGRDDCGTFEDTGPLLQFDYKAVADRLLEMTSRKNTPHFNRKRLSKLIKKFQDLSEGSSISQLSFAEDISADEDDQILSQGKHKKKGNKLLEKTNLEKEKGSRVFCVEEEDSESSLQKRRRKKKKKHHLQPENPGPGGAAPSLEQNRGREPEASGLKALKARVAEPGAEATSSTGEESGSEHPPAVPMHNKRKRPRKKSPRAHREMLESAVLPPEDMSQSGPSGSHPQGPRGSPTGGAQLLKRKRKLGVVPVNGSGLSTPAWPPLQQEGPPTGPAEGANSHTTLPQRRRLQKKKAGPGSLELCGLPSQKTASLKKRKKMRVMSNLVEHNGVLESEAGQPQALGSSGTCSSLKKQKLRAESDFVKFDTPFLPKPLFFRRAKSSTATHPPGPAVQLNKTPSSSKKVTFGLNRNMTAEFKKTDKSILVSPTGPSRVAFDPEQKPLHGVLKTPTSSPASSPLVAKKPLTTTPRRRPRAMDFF
Test: Cysteine liganding, probe competition
Type: binding
Procedure, shortened: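 Probe competition in native proteome: 5 mg/ml lysate, compound 1 hr 25° C, then desthiobiotin iodoacetamide (10 mM stock) 1 hr 25° C; acetone ppt, urea/DTT reduction, iodoacetamide alkylation, trypsin, streptavidin pull-down.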

Structure (SMILES)	Liganded (RRP1B Res# 155, uniprot Q14684)	100 Max (uniprot Q14684)	100 ave (uniprot Q14684)	500 Max (uniprot Q14684)	500 ave (uniprot Q14684)
COc1ccc2c(c1)CCCN2C(=O)CCl [KB02]	YES				
O=C(CCl)Nc1cc(C(F)(F)F)cc(C(F)(F)F)c1 [KBO3]		27.08	18.31	70.79	66.05
